Results as given in paper PMC8398451, “Molecular Engineering of Curcumin, an Active Constituent of Curcuma longa L. (Turmeric) of the Family Zingiberaceae with Improved Antiproliferative Activity” (Plants, 2021).

Key:
[1] = system: CCRF-CEM; assay: NCI antiproliferative SRB assay, Leukemia panel; type: cell-based, Human
[2] = system: MOLT-4; assay: NCI antiproliferative SRB assay, Leukemia panel; type: cell-based, Human
[3] = system: HCT-15; assay: NCI antiproliferative SRB assay, Colon Cancer panel; type: cell-based, Human
[4] = system: HT29; assay: as above; type: cell-based, Human
[5] = system: SF-539; assay: NCI antiproliferative SRB assay, CNS Cancer panel; type: cell-based, Human
[6] = system: M14; assay: NCI antiproliferative SRB assay, Melanoma panel; type: cell-based, Human
[7] = system: UACC-62; assay: NCI antiproliferative SRB assay, Melanoma panel; type: cell-based, Human
[8] = system: OVCAR-5; assay: NCI antiproliferative SRB assay, Ovarian Cancer panel; type: cell-based, Human
[9] = system: SN 12C; assay: NCI antiproliferative SRB assay, Renal Cancer panel; type: cell-based, Human
[10] = system: TK-10; assay: as above; type: cell-based, Human
[11] = system: MDA-MB-231; assay: NCI antiproliferative SRB assay, Breast Cancer panel; type: cell-based
[12] = system: T-47D; assay: as above; type: cell-based, Human
[13] = system: MDA-MB-468; assay: as above; type: cell-based, Human
Procedure: The antiproliferative activity of tested compounds was done against five dozen (60) cancer cell lines derived from nine different panels. All of the compounds were evaluated for antiproliferative activity in a single dose at 10 µM. Growth percent (GP) and percent growth inhibition (% GI) were used to calculate antiproliferative activity. […] The antiproliferative results of five-dose assay were calculated as three dose related parameters like, 50% growth inhibition (GI50), 50% lethal concentration (LC50), and total growth inhibition TGI [43, 44, 45, 46, 47].
Human tumor cell lines were grown in RPMI 1640 medium containing 5% fetal bovine serum and 2 mM L-glutamine. For a typical screening experiment, cells were inoculated into 96-well microtiter plates in 100 µL at plating densities ranging from 5000 to 40,000 cells/well, depending on the doubling time of individual cell lines. Two plates of each cell line were fixed in situ with trichloroacetic acid (TCA) after 24 h to represent a cell population measurement for each cell line at the time of drug addition (Ti). The experimental drugs were frozen after being solubilized in dimethyl sulfoxide at 400-fold the desired final maximum test concentration. An aliquot of frozen concentrate was thawed and diluted to twice the desired final maximum test concentration with medium containing 50 µg/mL gentamicin at the time of drug addition. Additional four, 10-fold, or ½ log serial dilutions serial dilutions were performed to provide a total of five drug concentrations plus the control. Aliquots of 100 µL of these different drug dilutions were added to the appropriate microtiter wells already containing 100 µL of medium, resulting in the required final drug concentrations. Following drug addition, the plates are incubated for an additional 48 h at 37 °C, 5% CO2, 95% air, and 100% relative humidity. For adherent cells, the assay is terminated by the addition of cold TCA. Cells are fixed in situ by the gentle addition of 50 µL of cold 50% (w/v) TCA (final concentration, 10% TCA) and incubated for 60 min at 4 °C. The supernatant is discarded, and the plates are washed five times with tap water and air dried. Sulforhodamine B (SRB) solution (100 µL) at 0.4% (w/v) in 1% acetic acid was added to each well, and plates were incubated for 10 min at room temperature. After staining, unbound dye was removed by washing five times with 1% acetic acid and the plates were air dried. Bound stain was subsequently solubilized with 10 mM trizma base, and the absorbance was read on an automated plate reader at a wavelength of 515 nm. For suspension cells, the methodology was the same except that the assay was terminated by fixing settled cells at the bottom of the wells by gently adding 50 µL of 80% TCA (final concentration, 16% TCA). […]
Antiproliferative activity
The anticancer screening was carried ou t as per the NCI US protocol. Using the seven absorbance measurements (time zero, (Ti), control growth, (C), and test growth in the presence of drug at the five concentration levels (Tf)), the percentage growth was calculated at each of the drug concentrations level as [( Tf−Ti × 100 for concentrations for which Tf ≥ Ti, and Tf−Ti × 100 for […]
concentrations for which Tf < Ti.
Three-dose response parameters (GI50, TGI, and LC50) were calculated for each of the experimental agents. Growth inhibition of 50% (GI50) was calculated from 100 × Tf−Ti = 50, , which was […]
the drug concentration resulting in a 50% reduction in the net protein increase (as measured by sulforhodamine B, SRB staining) in control cells during the drug incubation. The total growth inhibition (TGI) was calculated from Tf = Ti, which was the drug concentration resulting in total growth inhibition and signified the cytostatic effect. The LC50 was calculated from 100 × Tf−Ti = −50, , indicating a net loss […]
of cells following treatment which indicated the concentration of drug resulting in a 50% reduction in the […]

[14] = system: Non-Small Cell Lung Cancer cell line panel; assay: NCI antiproliferative assay, panel summary; type: cell-based, Human
[15] = system: Melanoma cell line panel; assay: NCI antiproliferative assay, panel summary; type: cell-based, Human
[16] = system: Prostate Cancer cell line panel; assay: NCI antiproliferative assay, panel summary; type: cell-based, Human
[17] = Homo sapiens, 5-dose 0.01-100 µM
[18] = Homo sapiens, 5-dose 0.01-100 µM, read-out: LC50 (the source's name)
[19] = Homo sapiens, T47D, 5-dose 0.01-100 µM
[20] = Homo sapiens, 5-dose assay, read-out: Sub Panel MID b (mean GI50 of panel)

For `COc1cc(/C=C/c2cc(/C=C/c3ccc(O)c(OC)c3)n(C(=O)Nc3ccc(C(F)(F)F)cc3)n2)ccc1O` [3c], the GI50 [1, 17] was 2.63 µM, the CC50 [1, 18] was greater than 100 µM and the “%GI” value ([1]; one dose 10 µM) was 96.58%. For the same molecule, the “GP (growth percent)” value ([1]; one dose 10 µM) was 3.42, the TGI ([2]; 5-dose 0.01-100 µM) was 20.0 µM and the GI50 [2, 17] was 2.73 µM. The CC50 [2, 18] was greater than 100 µM, the “%GI” value ([2]; one dose 10 µM) was 88.91% and the “GP (growth percent)” value ([2]; one dose 10 µM) was 11.09. For the same molecule, the TGI ([3]; 5-dose 0.01-100 µM) was 9.63 µM, the GI50 [3, 17] was 2.69 µM and the CC50 [3, 18] was greater than 100 µM. The “%GI” value ([3]; one dose 10 µM) was 74.49%, the “GP (growth percent)” value ([3]; one dose 10 µM) was 25.51 and the TGI ([4]; 5-dose 0.01-100 µM) was 4.13 µM. The GI50 ([4]; Homo sapiens, HT-29, 5-dose 0.01-100 µM) was 2.02 µM, the CC50 ([4]; Homo sapiens, HT-29, 5-dose 0.01-100 µM, read-out: LC50 (the source's name)) was 8.44 µM and the “%GI” value ([4]; one dose 10 µM) was 96.50%. For the same molecule, the “GP (growth percent)” value ([4]; one dose 10 µM) was 3.50, the TGI ([5]; 5-dose 0.01-100 µM) was 7.45 µM and the GI50 [5, 17] was 2.37 µM. The CC50 [5, 18] was 56 µM, the “%GI” value ([5]; one dose 10 µM) was 70.99% and the “GP (growth percent)” value ([5]; one dose 10 µM) was 29.01. The TGI ([6]; 5-dose 0.01-100 µM) was 4.08 µM, the GI50 [6, 17] was 1.94 µM and the CC50 [6, 18] was 8.58 µM. The “%GI” value ([6]; one dose 10 µM) was 70.52%, the “GP (growth percent)” value ([6]; one dose 10 µM) was 29.48 and the TGI ([7]; 5-dose 0.01-100 µM) was 4.76 µM. For the same molecule, the GI50 [7, 17] was 2.02 µM, the CC50 [7, 18] was 16.7 µM and the “%GI” value ([7]; one dose 10 µM) was 68.90%. The “GP (growth percent)” value ([7]; one dose 10 µM) was 31.10, the TGI ([8]; 5-dose 0.01-100 µM) was 4.97 µM and the GI50 [8, 17] was 2.16 µM. For the same molecule, the CC50 [8, 18] was 15.2 µM, the “GP (growth percent)” value ([8]; one dose 10 µM) was 115.18 and the TGI ([9]; 5-dose 0.01-100 µM) was 9.90 µM. The GI50 ([9]; Homo sapiens, SN12C, 5-dose 0.01-100 µM) was 2.73 µM, the CC50 ([9]; Homo sapiens, SN12C, 5-dose 0.01-100 µM, read-out: LC50 (the source's name)) was greater than 100 µM and the “%GI” value ([9]; one dose 10 µM) was 63.08%. The “GP (growth percent)” value ([9]; one dose 10 µM) was 36.92, the TGI ([10]; 5-dose 0.01-100 µM) was 14.8 µM and the GI50 [10, 17] was 4.13 µM. For the same molecule, the CC50 [10, 18] was 59.4 µM, the “%GI” value ([10]; one dose 10 µM) was 22.31% and the “GP (growth percent)” value ([10]; one dose 10 µM) was 77.69. It also gave a TGI ([11]; 5-dose 0.01-100 µM) of 9.62 µM, a GI50 ([11]; Homo sapiens) of 3.06 µM and a CC50 [11, 18] greater than 100 µM. For the same molecule, the “%GI” value ([11]; one dose 10 µM) was 45.21%, the “GP (growth percent)” value ([11]; one dose 10 µM) was 54.79 and the TGI ([12]; 5-dose 0.01-100 µM) was 39.0 µM. For the same molecule, the GI50 [12, 19] was 2.81 µM, the LC50 (lethal concentration, 50% cell kill) [12, 19] was greater than 100 µM and the “%GI” value ([12]; one dose 10 µM) was 52.60%. The “GP (growth percent)” value ([12]; one dose 10 µM) was 47.40, the LC50 (50% lethal concentration) ([13]; Homo sapiens, MDA-MB-468, read-out: LC50) was greater than 100 µM and the GI50 ([13]; Homo sapiens, MDA-MB-468, 5-dose 0.01-100 µM) was 2.3 µM. The TGI ([13]; MDA-MB-468, 5-dose 0.01-100 µM) was 6.25 µM, the “%GI” value ([13]; MDA-MB-468, one dose 10 µM) was 56.21% and the “GP (growth percent)” value ([13]; MDA-MB-468, one dose 10 µM) was 43.79. For the same molecule, the “Mean % GI” value ([14]; 10 µM) was 48.83%, the “Selectivity Ratio (MID a:MID b)” value ([14]; 5-dose assay) was 0.82 and the GI50 [14, 20] was 3.44 µM. For the same molecule, the “Mean % GI” value ([15]; 10 µM) was 60.81%, the GI50 [15, 20] was 2.51 µM and the “Mean % GI” value ([16]; 10 µM) was 57.21%. For the same molecule, the “Selectivity Ratio (MID a:MID b)” value ([16]; 5-dose assay) was 0.82 and the GI50 [16, 20] was 3.44 µM.
